# Source: US8765728B2, “[1,5]-diazocin derivatives” (MelliTech, priority 2009, dated 2014)
# System: Min6 cell
# Test: Insulin secretion response of beta cell line to formula I compounds (insulin ELISA)
# Type: cell-based
# Settings: rank according to % increase versus control at most effective dose
# Method: The secretory responses of beta cell lines to glucose were tested as described in Merglen et al. Endocrinology, (2004) 145(2):667-78.
# Briefly, after incubation with compounds from formula I or control vehicle, cells were maintained for 2 hours in glucose-free culture medium. The cells were then washed twice and preincubated for 30 minutes at 37° C. in glucose-free Krebs-Ringer bicarbonate HEPES buffer (KRBH: 135 mM NaCl, 3.6 mM KCl, 5 mM NaHCO3, 0.5 mM NaH2PO4, 0.5 mM MgCl2, 1.5 mM CaCl2, and 10 mM HEPES, pH 7.4). BSA (0.1%) was added as an insulin carrier. Cells were subsequently washed with glucose-free KRBH and then incubated for 30 minutes at 37° C. in KRBH containing different concentrations of glucose. The reaction was stopped by placing the plates on ice; supernatants were collected to determine insulin secretion and cells were used for intracellular insulin content following acid-ethanol extraction. Insulin was measured by ELISA (Linco) according to the manufacturer's instructions.
row,Compound,Insulin secretion (Min6 cell) Range 1 to 5
1,"CS(=O)(=O)c1ccc(OC[C@H](O)CN2CCC(=O)N(C3CC3)Cc3cc(Cl)ccc32)cc1 [Compound 137, (R)-8-chloro-5-cyclopropyl-1-(2-hydroxy-3-(4-(methylsulfonyl)phenoxy)propyl)-2,3,5,6-tetrahydrobenzo[b][1,5]diazocin-4(1H)-one]",2 (2: 110-120% of control)
2,"O=C(c1ccco1)N1CCC(=O)N(C2CC2)Cc2cc(F)ccc21 [Compound 123, 5-cyclopropyl-8-fluoro-1-(furan-2-carbonyl)-2,3,5,6-tetrahydrobenzo[b][1,5]diazocin-4(1H)-one]",1 (1: 90-110% of control)
3,"O=C(COc1ccccc1)N1CCC(=O)N(C2CC2)Cc2cc(F)ccc21 [Compound 122, 5-cyclopropyl-8-fluoro-1-(2-phenoxyacetyl)-2,3,5,6-tetrahydrobenzo[b][1,5]diazocin-4(1H)-one]",1 (1: 90-110% of control)
4,"O=C1CCN(C[C@H](O)COc2ccc(Cl)cc2)c2ccc(OC(F)F)cc2CN1C1CC1 [Compound 120, (S)-1-(3-(4-chlorophenoxy)-2-hydroxypropyl)-5-cyclopropyl-8-(difluoromethoxy)-2,3,5,6-tetrahydrobenzo[b][1,5]diazocin-4(1H)-one]",1 (1: 90-110% of control)
5,"COc1ccc2c(c1)CN(C1CC1)C(=O)CCN2CC(=O)c1ccccc1 [Compound 11, 5-cyclopropyl-8-methoxy-1-(2-oxo-2-phenylethyl)-2,3,5,6-tetrahydrobenzo[b][1,5]diazocin-4(1H)-one]",1 (1: 90-110% of control)
6,"COc1ccc2c(c1)CN(C1CC1)C(=O)CCN2C[C@@H](O)COCc1ccccc1 [Compound 18, (R)-1-(3-(benzyloxy)-2-hydroxypropyl)-5-cyclopropyl-8-methoxy-2,3,5,6-tetrahydrobenzo[b][1,5]diazocin-4(1H)-one]",2 (2: 110-120% of control)
7,"O=C(CN1CCC(=O)N(C2CC2)Cc2cc(F)ccc21)c1ccc(N2CCCC2)cc1 [Compound 56, 5-cyclopropyl-8-fluoro-1-(2-oxo-2-(4-(pyrrolidin-1-yl)phenyl)ethyl)-2,3,5,6-tetrahydrobenzo[b][1,5]diazocin-4(1H)-one]",2 (2: 110-120% of control)
8,"O=C1CCN(C[C@@H](O)COc2ccc(Cl)cc2)c2ccc(OC(F)F)cc2CN1C1CC1 [Compound 119, (R)-1-(3-(4-chlorophenoxy)-2-hydroxypropyl)-5-cyclopropyl-8-(difluoromethoxy)-2,3,5,6-tetrahydrobenzo[b][1,5]diazocin-4(1H)-one]",3 (3: 120-140% of control)
9,"COc1cccc(C(=O)CN2CCC(=O)N(C3CC3)Cc3cc(OC)ccc32)c1 [Compound 20, 5-cyclopropyl-8-methoxy-1-(2-(3-methoxyphenyl)-2-oxoethyl)-2,3,5,6-tetrahydrobenzo[b][1,5]diazocin-4(1H)-one]",1 (1: 90-110% of control)
10,"O=C1CCNc2cc3c(cc2CN1C1CCCC1)OCO3 [Compound 161, 9-cyclopentyl-6,7,9,10-tetrahydro[1,3]dioxolo[4,5-i][1,5]benzodiazocin-8(5H)-one]",1 (1: 90-110% of control)
11,"ethyl 2-(4-oxo-1,2,3,4-tetrahydrobenzo[b][1,5]diazocin-5(6H)-yl)acetate [Compound 155]",1 (1: 90-110% of control)
12,"O=C1CCN(CC(O)c2ccc(Cl)cc2)c2ccc3c(c2CN1C1CC1)OCCO3 (stereo not drawn) [Compound 97, 7-[2-(4-chlorophenyl)-2-hydroxyethyl]-11-cyclopropyl-2,3,8,9,11,12-hexahydro[1,4]dioxino[2,3-h][1,5]benzodiazocin-10(7H)-one]",2 (2: 110-120% of control)
13,"COc1ccc2c(c1)CN(C1CC1)C(=O)CCN2C[C@H](O)COCc1ccccc1 [Compound 67, (S)-1-(3-(benzyloxy)-2-hydroxypropyl)-5-cyclopropyl-8-methoxy-2,3,5,6-tetrahydrobenzo[b][1,5]diazocin-4(1H)-one]",3 (3: 120-140% of control)
14,"O=C1CCN(CCCc2ccccc2)c2ccc(F)cc2CN1C1CC1 [Compound 74, 5-cyclopropyl-8-fluoro-1-(3-phenylpropyl)-2,3,5,6-tetrahydrobenzo[b][1,5]diazocin-4(1H)-one]",4 (4: 140-170% of control)
15,"COc1ccc2c(c1)CN(C1CC1)C(=O)CCN2CC(O)c1cccc(F)c1 (stereo not drawn) [Compound 31, 5-cyclopropyl-1-(2-(3-fluorophenyl)-2-hydroxyethyl)-8-methoxy-2,3,5,6-tetrahydrobenzo[b][1,5]diazocin-4(1H)-one]",1 (1: 90-110% of control)
16,"CCN1Cc2ccccc2N(CC(C)O)CCC1=O (stereo not drawn) [Compound 163, 5-ethyl-1-(2-hydroxypropyl)-2,3,5,6-tetrahydrobenzo[b][1,5]diazocin-4(1H)-one]",1 (1: 90-110% of control)
17,"Cc1cc(C(=O)N2CCC(=O)N(C3CC3)Cc3c2ccc2c3OCCO2)on1 [Compound 138, 11-cyclopropyl-7-(3-methylisoxazole-5-carbonyl)-2,3,8,9,11,12-hexahydro-[1,4]dioxino[2′,3′:3,4]benzo[1,2-b][1,5]diazocin-10(7H)-one]",1 (1: 90-110% of control)
18,"O=C(c1cccnc1)N1CCC(=O)N(C2CC2)Cc2cccnc21 [Compound 77, 5-cyclopropyl-1-nicotinoyl-2,3,5,6-tetrahydropyrido[2,3-b][1,5]diazocin-4(1H)-one]",5 (5: >170% of control)
19,"O=C1CCN(CC(O)COc2ccccc2)c2ccc3c(c2CN1C1CC1)OCCO3 (stereo not drawn) [Compound 95, 11-cyclopropyl-7-(2-hydroxy-3-phenoxypropyl)-2,3,8,9,11,12-hexahydro[1,4]dioxino[2,3-h][1,5]benzodiazocin-10(7H)-one]",1 (1: 90-110% of control)
20,"COc1ccccc1C(O)CN1CCC(=O)N(C2CC2)Cc2cc(F)ccc21 (stereo not drawn) [Compound 57, 5-cyclopropyl-8-fluoro-1-(2-hydroxy-2-(2-methoxyphenyl)ethyl)-2,3,5,6-tetrahydrobenzo[b][1,5]diazocin-4(1H)-one]",2 (2: 110-120% of control)
21,"COc1ccc2c(c1)CN(C1CC1)C(=O)CCN2CC(=O)c1cccc(F)c1 [Compound 22, 5-cyclopropyl-1-(2-(3-fluorophenyl)-2-oxoethyl)-8-methoxy-2,3,5,6-tetrahydrobenzo[b][1,5]diazocin-4(1H)-one]",2 (2: 110-120% of control)
22,"O=C(CN1CCC(=O)N(C2CC2)Cc2cc(F)ccc21)c1cccc(F)c1 [Compound 41, 5-cyclopropyl-8-fluoro-1-(2-(3-fluorophenyl)-2-oxoethyl)-2,3,5,6-tetrahydrobenzo[b][1,5]diazocin-4(1H)-one]",3 (3: 120-140% of control)
23,"O=C(c1cnccn1)N1CCC(=O)N(C2CC2)Cc2cc(F)ccc21 [Compound 130, 5-cyclopropyl-8-fluoro-1-(pyrazine-2-carbonyl)-2,3,5,6-tetrahydrobenzo[b][1,5]diazocin-4(1H)-one]",1 (1: 90-110% of control)
24,"COc1ccc(C(O)CN2CCC(=O)N(C3CC3)Cc3cc(F)ccc32)cc1 (stereo not drawn) [Compound 59, 5-cyclopropyl-8-fluoro-1-(2-hydroxy-2-(4-methoxyphenyl)ethyl)-2,3,5,6-tetrahydrobenzo[b][1,5]diazocin-4(1H)-one]",2 (2: 110-120% of control)
25,"Cc1cc(C(=O)N2CCC(=O)N(C3CC3)Cc3cc(OC(F)F)ccc32)on1 [Compound 142, 5-cyclopropyl-8-(difluoromethoxy)-1-(3-methylisoxazole-5-carbonyl)-2,3,5,6-tetrahydrobenzo[b][1,5]diazocin-4(1H)-one]",4 (4: 140-170% of control)
26,"O=C1CCN(CC(O)c2ccc(Cl)cc2)c2ccc(Cl)cc2CN1C1CC1 (stereo not drawn) [Compound 85, 8-chloro-1-(2-(4-chlorophenyl)-2-hydroxyethyl)-5-cyclopropyl-2,3,5,6-tetrahydrobenzo[b][1,5]diazocin-4(1H)-one]",1 (1: 90-110% of control)
27,"COc1ccc2c(c1)CN(C1CC1)C(=O)CCN2CC(=O)c1ccc(N2CCCC2)cc1 [Compound 16, 5-cyclopropyl-8-methoxy-1-(2-oxo-2-(4-(pyrrolidin-1-yl)phenyl)ethyl)-2,3,5,6-tetrahydrobenzo[b][1,5]diazocin-4(1H)-one]",4 (4: 140-170% of control)
28,"O=C(CN1CCC(=O)N(C2CC2)Cc2cc(Cl)ccc21)c1cccc(F)c1 [Compound 83, 8-chloro-5-cyclopropyl-1-(2-(3-fluorophenyl)-2-oxoethyl)-2,3,5,6-tetrahydrobenzo[b][1,5]diazocin-4(1H)-one]",1 (1: 90-110% of control)
29,"COc1ccc2c(c1OC(F)F)CN(C1CC1)C(=O)CCN2C(=O)c1cnccn1 [Compound 129, 5-cyclopropyl-7-(difluoromethoxy)-8-methoxy-1-(pyrazine-2-carbonyl)-2,3,5,6-tetrahydrobenzo[b][1,5]diazocin-4(1H)-one]",2 (2: 110-120% of control)
30,"O=C1CCN(C[C@@H](O)COCc2ccccc2)c2ccc(F)cc2CN1C1CCCC1 [Compound 168, (R)-1-(3-(benzyloxy)-2-hydroxypropyl)-5-cyclopentyl-8-fluoro-2,3,5,6-tetrahydrobenzo[b][1,5]diazocin-4(1H)-one]",4 (4: 140-170% of control)
